Measured values taken from the NIST ThermoML archive (doi:10.1021/je400970y).
± gives the expanded uncertainty stated by the source.

Conditions: Liquid, Closed cell (Static) method

C=C(F)C(F)(F)F [2,3,3,3-tetrafluoro-1-propene]
Conditions	vapor or sublimation pressure [kPa]
248.17 K	123.1 ± 3
251.18 K	138.8 ± 3
254.21 K	156.9 ± 3
258.2 K	184.3 ± 3
260.18 K	198.3 ± 3
262.18 K	213.8 ± 3
264.2 K	229.9 ± 3
266.25 K	248.1 ± 3
270.26 K	286 ± 3.1
271.16 K	295.3 ± 3.1
273.21 K	316.5 ± 3.1
275.22 K	338.2 ± 3.1
277.22 K	361.5 ± 3.1
279.14 K	385.1 ± 3.1
281.23 K	411.4 ± 3.1
285.18 K	466.2 ± 3.1
287.22 K	496.4 ± 3.1
289.22 K	526.7 ± 3.2
291.22 K	558.8 ± 3.2
293.25 K	593.4 ± 3.2
295.25 K	627.9 ± 3.2
297.55 K	672.2 ± 3.2
299.19 K	703 ± 3.3
301.32 K	746.2 ± 3.3
303.25 K	786.5 ± 3.3
305.11 K	825.8 ± 3.3
306.31 K	852.9 ± 3.4
309.51 K	927.9 ± 3.4
311.49 K	976.6 ± 3.5
313.43 K	1026.2 ± 3.5
315.55 K	1082.8 ± 3.5
317.23 K	1128.4 ± 3.6
319.14 K	1182.9 ± 3.6
321.02 K	1237.8 ± 3.7
323.79 K	1322.3 ± 3.8
325.56 K	1380 ± 3.8
326.82 K	1420.8 ± 3.9
328.86 K	1490.2 ± 3.9
330.87 K	1560.1 ± 4
332.97 K	1635.8 ± 4.1
334.99 K	1711.2 ± 4.2
336.99 K	1788.7 ± 4.2
338.97 K	1868.1 ± 4.3
341.06 K	1955.5 ± 4.4
343.04 K	2040.1 ± 4.5
345.05 K	2129.1 ± 4.6
347.06 K	2221.2 ± 4.7
349.05 K	2315.9 ± 4.9
351.03 K	2412.1 ± 5
353.08 K	2516.4 ± 5.1
355.03 K	2618.5 ± 5.2
357.23 K	2738.3 ± 5.4
359.34 K	2856.6 ± 5.5
361.05 K	2955.2 ± 5.7

CC(F)(Cl)C(F)(F)F (stereo not given) [2-chloro-1,1,1,2-tetrafluoropropane]
Conditions	vapor or sublimation pressure [kPa]
268.19 K	49.7 ± 3
270.19 K	54.4 ± 3
273.18 K	60.5 ± 3
275.18 K	66.4 ± 3
278.16 K	74.3 ± 3
281.15 K	83.9 ± 3
283.12 K	88.9 ± 3
286.13 K	100.5 ± 3
288.11 K	106.5 ± 3
290.12 K	116 ± 3
292.13 K	124.6 ± 3
295.09 K	138.2 ± 3
298.12 K	151.8 ± 3
300.09 K	163.5 ± 3
302.11 K	175.3 ± 3
304.25 K	185.9 ± 3
307.02 K	203.2 ± 3
308.9 K	215.2 ± 3
310.68 K	227.6 ± 3
313.35 K	247.9 ± 3
315.28 K	261.8 ± 3
318.34 K	286.5 ± 3.1
320.84 K	307.9 ± 3.1
324.02 K	334.9 ± 3.1
325.63 K	351.9 ± 3.1
328.81 K	382.6 ± 3.1
330.46 K	401.6 ± 3.1
333.63 K	435.9 ± 3.1
335.25 K	456.6 ± 3.1
338.51 K	495.5 ± 3.1
339.67 K	510.3 ± 3.1
341.68 K	536.4 ± 3.2
343.28 K	559.6 ± 3.2
345.27 K	588.1 ± 3.2
347.07 K	615.8 ± 3.2
349.07 K	645.9 ± 3.2
